Assay [1] has as its system 5-LO. Briefly: In vivo inhibition of OA-induced increase in tracheal pressure in passively sensitized guinea pigs, oral dosing. Also on record: species or system guinea pig (male Hartley). The note with it: 2 hr, OA challenge; for inhibition in vivo at 30 mg/kg: Cavia porcellus, read-out: Inhibition of 5-LO In Vivo Percent Inhibition at 30 mg/kg, po, 2 hr. Here is the method:
Male Hartley guinea pigs (350-500 g) were passively sensitized against ovalbumin by i.p. administration of 0.3 ml of antiserum 2 days preceeding the experiment. Hyperimmune serum was prepared from actively sensitizing male guinea pigs conditioned with 2 mg of ovalbumin in 50% Complete Freund's Adjuvant i.p. on days 1 and 5. On day 21, the animals were bled and the serum collected and stored at -20° C. On the day of the experiment the passively sensitized guinea pigs were anesthetized with 35 to 40 mg/kg of pentobarbital sodium given i.p. The right jugular vein was cannulated with Tygon microbore tubing (o.d.=03) connected to a syringe for administration of selected drugs. Blood pressure was measured with a Statham pressure transducer connected to a Tygon catheter placed in the left carotid artery. The trachea was cannulated and each animal was ventilated with room air by means of a Harvard rodent respirator set to deliver a tidal volume of 1 ml/100 g body weight with a rate of 60 breaths/minute. Succinylcholine (5 mg/kg) was given i.v. to suppress spontaneous respiration. Intratracheal pressure, an index of total pulmonary resistance, was measured with a Statham pressure transducer connected to a T-tube on the tracheal cannula. […] Body temperature was maintained within normal limits by means of a Deltaphase isothermal pad. Prior to surgery, test compound or vehicle (PEG 400) was administered to each guinea pig by oral gavage and OA challenge was at designated times following oral dosing. The animals were pretreated i.v. with pyrilamine (5 mg/kg), propranolol (1 mg/kg) and indomethacin (10 mg/kg) 5 minutes prior to the OA challenge. OA-induced increase in tracheal pressure was expressed as a percentage of the maximal pressure obtained by clamping the trachea with a hemistat. To determine the effect of each drug, a % inhibition value was calculated from the vehicle and drug treated animals at each concentration tested.

The subject of assay [2] is 5-LO. Briefly: In vitro inhibition of 5-LO: Schultz-Dale reaction (ovalbumin-induced contraction of tracheal strips from actively sensitized guinea pigs). Particulars: Cavia porcellus; sensitized guinea-pig tracheal strips; antigen (OA) 30 ng/ml; 30 min preincubation; indomethacin 5 μM, pyrilamine 10 μM. The format is tissue-based, guinea pig (male Hartley). Here is the method:
Male, Hartley strain guinea-pigs (200-250 g) were actively sensitized by three injections of ovalbumin (OA, 10 mg/kg). The OA was administered intraperitoneally on Days 1 and 3 and subcutaneously on Day 5. In vitro experiments were performed 21-25 days later.
On the day of the experiment, guinea pigs were killed by asphyxiation with CO2 and the tracheas removed, cleaned of surrounding connective tissue and cut into sprial strips. Each strip was divided in half for paired experiments. Tissues were placed in 10 ml jacketed tissue baths maintained at 37° C. and attached with cotton thread to Grass force-displacement transducers (FT03C). […] Tracheal strips were bathed in modified Krebs' solution of the following composition (millimolar) NaCl, 118.2; KCl, 4.6; CaCl2.2H2 O, 2.5; MgSO4.7H2 O, 1.2; NaHCO3, 24.8; KH2 PO4, 1.0; and dextrose, 10.0. The buffer contained indomethacin (5 μM) which potentiated the contractions of the cysteinyl leukotrienes (LT) by removing the influence of cyclooxygenase products. The tissue baths were aerated with 95% O2 :5% CO2. Tracheal strips were placed under a resting tension of 2 g, and the tissues were allowed a minimal stabilization period of 60 minutes before undergoing experimentation. Bath fluid was changed at 15 minute intervals during the stabilization period.
Concentration-response curves
Cumulative concentration-response curves were obtained from tracheal strips by increasing the agonist concentration in the organ bath by half-log increments while the previous concentration remained in contact with the tissues van Rossum, Arch, Int. Pharmacodymn Ther., 143, 299-330 (1963). Agonist concentration was increased after reaching the plateau of the contraction elicited by the preceeding concentration. One concentration-response curve was obtained from each tissue. To minimize variability between tissues, contractile responses were expressed as a percentage of the maximal response obtained with carbachol (10 μM), added to the bath at the end of the concentration-response curve. Initially, tissues were challenged with carbachol (10 μM) following the 60 minute stabilization period to insure tissue viability. After recording the maximal response to the initial carbachol challenge, the tissues were washed and re-equilibrated for 60 minutes before starting the experimental protocol.
Determination of EC50 and % Inhibition
To evaluate the effects of novel 5-lipoxygenase inhibitors in the Schultz-Dale reaction, each compound was incubated with the tissues 30 minutes before starting the curves. Vehicle (DMSO) was given to the paired control tissue. Pyrilamine (10 μM) was added to all baths at this time to block the actions of released histamine. Responses obtained at the antigen concentration of 30 ng/ml were recorded in the absence and presence of drug and percent inhibition was calculated for each pair of tissues. IC50 values were determined by linear regression.
LT or carbachol concentration-response curves were used to determine specificity of the agent as a 5-lipoxygenase inhibitor. In these experiments the test compound was incubated as described above. EC50 values, which represent the molar concentration of agonist required to induce 50% of maximal response, was determined by linear regression. Differences in EC50 values, in the presence and absence of test compound were analyzed by Student's t-test with P<0.05 regarded as significant.

Take `NC(=O)N(O)CC=Cc1ccccc1SCC1CCCCC1` [Example 5, N-hydroxy-N-[3-[2-(cyclohexylmethylthio)phenyl]-prop-2-enyl]urea]: the inhibition in vivo at 30 mg/kg in assay [1] turned out to be 76%. For the same compound, in assay [2], the IC50 – broadly, the concentration at which inhibition is half-maximal – was 1200 nM.
Turning to `NC(=O)N(O)CC=Cc1ccccc1SCC1CC1` [Example 6, N-hydroxy-N-[3-[2-(cyclopropylmethylthio)phenyl]-prop-2-enyl]urea], in assay [1], the inhibition in vivo at 30 mg/kg is 75%. Moreover, the IC50 in assay [2] was 620 nM.
For `CC#CCSc1ccccc1C=CCN(O)C(N)=O` [Example 3, N-hydroxy-N-[3-[2-(2-butynylthio)phenyl]prop-2-enyl]urea], in assay [1] (10 mg/kg (footnote a)), the “Inhibition of 5-LO In Vivo Percent Inhibition (dose of 10 mg/kg)” value amounted to 30%. Further, the concentration for half-maximal inhibition (IC50) in assay [2] was 600 nM.
`C#CCOc1ccccc1C=CCN(O)C(N)=O` [Example 7, N-hydroxy-N-[3-[2-(2-propynyloxy)phenyl]prop-2-enyl]urea]: in assay [1], the inhibition in vivo at 30 mg/kg worked out at 93%. Besides, the IC50 in assay [2] was 2400 nM.
Regarding `C#CCSc1c(F)cccc1C=CCN(O)C(N)=O` [Example 9, N-hydroxy-N-[3-[3-fluoro-2-(2-propynylthio)phenyl]prop-2-enyl]urea], in assay [1], the inhibition in vivo at 30 mg/kg was determined as 93%. Also, the IC50 in assay [2] turned out to be 1000 nM.
Turning to `C=CCCSc1ccccc1C=CCN(O)C(N)=O` [Example 4, N-hydroxy-N-[3-[2-(3-butenylthio)phenyl]-prop-2-enyl]urea], the inhibition in vivo at 30 mg/kg in assay [1] came to 81%. Also, the IC50 in assay [2] stood at 390 nM.
The matching figures for `C#CCSc1ccccc1C=C(C)CN(O)C(N)=O` [Example 8, N-hydroxy-N-[2-methyl-3-[2-(2-propynylthio)phenyl]prop-2-enyl]urea]: 51% and 1800 nM.
In the case of `C#CCSc1ccccc1C=CCN(O)C(N)=O` [Example 1, N-hydroxy-N-[3-[2-(2-propynylthio)phenyl]prop-2-enyl]urea], the inhibition in vivo at 30 mg/kg in assay [1] was determined as 78%. In assay [2], the IC50 was 2100 nM.
For `C#CCCSc1ccccc1C=CCN(O)C(N)=O` [Example 2, N-hydroxy-N-[3-[2-(3-butynylthio)phenyl]prop-2-enyl]urea], in that order: 50% and 1000 nM.

These data come from US5130485A, “N-hydroxy-N-(3-(2-substituted phenyl)prop-2-enyl)ureas and thioureas useful as 5-lipoxygenase inhibiting agents” (Eli Lilly and Company, priority 1991, dated 1992).
